Key:
Assay in all cases: relative viability (nuclei count vs DMSO), 5 days (fraction); higher = more cells survive
CAL-12T = test system: CAL-12T
Outline: (§1)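 The day after seeding in 1536-well plates, lung cancer cell lines were treated by pin tool with a single drug, or with a fixed anchor-drug dose together with five library-drug doses (not always all listed) in √10 steps. After 5 days, a combined fix-and-stain solution (final 0.05% Triton X-100, 1% formaldehyde, 1 ug/ml Hoechst) was added. Nuclei counted on 4× images gave relative viability as treated counts over vehicle counts, reported as the median of duplicate plates.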

EKVX = test system: EKVX
Outline: as §1

H3255 = test system: H3255
Outline: as §1

HCC-15 = test system: HCC-15
Outline: as §1

HCC-827 = test system: HCC-827
Outline: as §1

LCLC-97TM1 = test system: LCLC-97TM1
Outline: as §1

LK-2 = test system: LK-2
Outline: as §1

NCI-H1355 = test system: NCI-H1355
Outline: as §1

NCI-H1650 = test system: NCI-H1650
Outline: as §1

NCI-H1734 = test system: NCI-H1734
Outline: as §1

NCI-H1755 = test system: NCI-H1755
Outline: as §1

NCI-H1975 = test system: NCI-H1975
Outline: as §1

NCI-H2228 = test system: NCI-H2228
Outline: as §1

NCI-H2342 = test system: NCI-H2342
Outline: as §1

NCI-H2405 = test system: NCI-H2405
Outline: as §1

NCI-H322M = test system: NCI-H322M
Outline: as §1

NCI-H520 = test system: NCI-H520
Outline: as §1

NCI-H661 = test system: NCI-H661
Outline: as §1

PC-14 = test system: PC-14
Outline: as §1

PC-3 [JPC-3] = test system: PC-3 [JPC-3]
Outline: as §1

RERF-LC-KJ = test system: RERF-LC-KJ
Outline: as §1

COc1cc2nccc(Oc3ccc(NC(=O)Nc4cc(C)on4)c(Cl)c3)c2cc1OC [Tivozanib] + O=C(CCCCCCC(=O)Nc1ccccc1)NO [Vorinostat] (partner 1 µM)
relative viability (CAL-12T; first compound 0.005 µM): 0.842 | relative viability (CAL-12T; first compound 0.01581 µM): 0.744 | relative viability (CAL-12T; first compound 0.05 µM): 0.891 | relative viability (CAL-12T; first compound 0.1581 µM): 0.539 | relative viability (CAL-12T; first compound 0.5 µM): 0.473 | relative viability (EKVX; first compound 0.005 µM): 0.787 | relative viability (EKVX; first compound 0.01581 µM): 0.684 | relative viability (EKVX; first compound 0.05 µM): 0.803 | relative viability (EKVX; first compound 0.5 µM): 0.765 | relative viability (H3255; first compound 0.005 µM): 0.633 | relative viability (H3255; first compound 0.01581 µM): 0.794 | relative viability (H3255; first compound 0.05 µM): 0.885 | relative viability (H3255; first compound 0.1581 µM): 0.888 | relative viability (H3255; first compound 0.5 µM): 0.611 | relative viability (HCC-15; first compound 0.005 µM): 0.797 | relative viability (HCC-15; first compound 0.01581 µM): 0.896 | relative viability (HCC-15; first compound 0.05 µM): 0.857 | relative viability (HCC-15; first compound 0.1581 µM): 0.863 | relative viability (HCC-15; first compound 0.5 µM): 0.886 | relative viability (HCC-827; first compound 0.005 µM): 0.69 | relative viability (HCC-827; first compound 0.01581 µM): 0.851 | relative viability (HCC-827; first compound 0.05 µM): 0.879 | relative viability (HCC-827; first compound 0.1581 µM): 0.854 | relative viability (HCC-827; first compound 0.5 µM): 0.864 | relative viability (LCLC-97TM1; first compound 0.005 µM): 0.619 | relative viability (LCLC-97TM1; first compound 0.01581 µM): 0.69 | relative viability (LCLC-97TM1; first compound 0.05 µM): 0.686 | relative viability (LCLC-97TM1; first compound 0.1581 µM): 0.732 | relative viability (LCLC-97TM1; first compound 0.5 µM): 0.323 | relative viability (LK-2; first compound 0.005 µM): 0.317 | relative viability (LK-2; first compound 0.01581 µM): 0.352 | relative viability (LK-2; first compound 0.05 µM): 0.33 | relative viability (LK-2; first compound 0.1581 µM): 0.185 | relative viability (LK-2; first compound 0.5 µM): 0.186 | relative viability (NCI-H1355; first compound 0.005 µM): 0.58 | relative viability (NCI-H1355; first compound 0.01581 µM): 0.612 | relative viability (NCI-H1355; first compound 0.05 µM): 0.68 | relative viability (NCI-H1355; first compound 0.1581 µM): 0.437 | relative viability (NCI-H1355; first compound 0.5 µM): 0.588 | relative viability (NCI-H1650; first compound 0.005 µM): 0.638 | relative viability (NCI-H1650; first compound 0.01581 µM): 0.529 | relative viability (NCI-H1650; first compound 0.05 µM): 0.712 | relative viability (NCI-H1650; first compound 0.1581 µM): 0.606 | relative viability (NCI-H1650; first compound 0.5 µM): 0.545 | relative viability (NCI-H1734; first compound 0.005 µM): 0.685 | relative viability (NCI-H1734; first compound 0.01581 µM): 0.79 | relative viability (NCI-H1734; first compound 0.05 µM): 0.813 | relative viability (NCI-H1734; first compound 0.1581 µM): 0.578 | relative viability (NCI-H1734; first compound 0.5 µM): 0.57 | relative viability (NCI-H1755; first compound 0.005 µM): 0.742 | relative viability (NCI-H1755; first compound 0.01581 µM): 0.786 | relative viability (NCI-H1755; first compound 0.05 µM): 0.739 | relative viability (NCI-H1755; first compound 0.1581 µM): 0.706 | relative viability (NCI-H1755; first compound 0.5 µM): 0.587 | relative viability (NCI-H1975; first compound 0.005 µM): 0.663 | relative viability (NCI-H1975; first compound 0.01581 µM): 0.731 | relative viability (NCI-H1975; first compound 0.05 µM): 0.712 | relative viability (NCI-H1975; first compound 0.1581 µM): 0.699 | relative viability (NCI-H1975; first compound 0.5 µM): 0.666 | relative viability (NCI-H2228; first compound 0.005 µM): 0.606 | relative viability (NCI-H2228; first compound 0.01581 µM): 0.723 | relative viability (NCI-H2228; first compound 0.05 µM): 0.761 | relative viability (NCI-H2228; first compound 0.1581 µM): 0.599 | relative viability (NCI-H2228; first compound 0.5 µM): 0.626 | relative viability (NCI-H2342; first compound 0.005 µM): 0.783 | relative viability (NCI-H2342; first compound 0.01581 µM): 0.668 | relative viability (NCI-H2342; first compound 0.05 µM): 0.719 | relative viability (NCI-H2342; first compound 0.5 µM): 0.811 | relative viability (NCI-H2405; first compound 0.005 µM): 0.376 | relative viability (NCI-H2405; first compound 0.01581 µM): 1.03 | relative viability (NCI-H2405; first compound 0.05 µM): 1.05 | relative viability (NCI-H2405; first compound 0.1581 µM): 0.854 | relative viability (NCI-H2405; first compound 0.5 µM): 0.788 | relative viability (NCI-H322M; first compound 0.005 µM): 0.768 | relative viability (NCI-H322M; first compound 0.01581 µM): 0.857 | relative viability (NCI-H322M; first compound 0.05 µM): 0.87 | relative viability (NCI-H322M; first compound 0.1581 µM): 0.665 | relative viability (NCI-H322M; first compound 0.5 µM): 0.744 | relative viability (NCI-H520; first compound 0.005 µM): 0.729 | relative viability (NCI-H520; first compound 0.01581 µM): 0.754 | relative viability (NCI-H520; first compound 0.05 µM): 0.691 | relative viability (NCI-H520; first compound 0.1581 µM): 0.675 | relative viability (NCI-H520; first compound 0.5 µM): 0.607 | relative viability (NCI-H661; first compound 0.005 µM): 0.782 | relative viability (NCI-H661; first compound 0.01581 µM): 0.776 | relative viability (NCI-H661; first compound 0.05 µM): 0.789 | relative viability (NCI-H661; first compound 0.1581 µM): 0.8 | relative viability (NCI-H661; first compound 0.5 µM): 0.802 | relative viability (PC-14; first compound 0.005 µM): 0.728 | relative viability (PC-14; first compound 0.01581 µM): 0.792 | relative viability (PC-14; first compound 0.05 µM): 0.711 | relative viability (PC-14; first compound 0.1581 µM): 0.695 | relative viability (PC-14; first compound 0.5 µM): 0.58 | relative viability (PC-3 [JPC-3]; first compound 0.01581 µM): 0.814 | relative viability (PC-3 [JPC-3]; first compound 0.05 µM): 0.801 | relative viability (PC-3 [JPC-3]; first compound 0.1581 µM): 0.691 | relative viability (PC-3 [JPC-3]; first compound 0.5 µM): 0.592 | relative viability (RERF-LC-KJ; first compound 0.005 µM): 0.621 | relative viability (RERF-LC-KJ; first compound 0.01581 µM): 0.616 | relative viability (RERF-LC-KJ; first compound 0.05 µM): 0.734 | relative viability (RERF-LC-KJ; first compound 0.1581 µM): 0.58 | relative viability (RERF-LC-KJ; first compound 0.5 µM): 0.593

— the supplement of paper PMC10307832
